Reference: patent USRE37886E1, “1-(1,2-Disubstituted piperidinyl)-4-substituted piperazine derivatives” (Janssen Pharmaceuticals, N.V., priority 1995, dated 2002)
pIC50: −log10 of the molar value. Each block holds one compound with its values, some of them ahead of it.

Experiments:
[1] = tested on: substance P induced plasma extravasation; assay: Antagonism of substance P induced plasma extravasation in guinea-pigs; type: in vivo; settings: lowest active dose, female guinea-pigs; for LAD nose: compound 1 hour prior to substance P (2 mg/kg, femoral artery), blue colouring of nose 10 minutes after challenge; for LAD conjunctiva / LAD forepaws / LAD trachea / LAD urinary bladder: compound 1 hour prior to substance P; for LAD conjunctiva: blue colouring of conjunctiva 10 minutes after challenge; for LAD forepaws: blue colouring of forepaws 10 minutes after challenge; for LAD trachea: blue colouring of trachea 30 minutes after challenge; for LAD urinary bladder: blue colouring of urinary bladder 30 minutes after challenge
Excerpt: (§1) The compounds of the present invention are potent inhibitors of neurokinin-mediated effects, in particular those mediated via the NK1 receptor, and may therefore be described as tachykinin antagonists, especially as substance P antagonists, as indicated in vitro by the antagonism of substance P induced relaxation of pig coronary arteries which is described hereinafter. The binding affinity of the present compounds for the human, guinea-pig and gerbil neurokinin receptors may be determined in vitro in a receptor binding test using ^3H-substance-P as radioligand. The subject compounds also show substance-P antagonistic activity in vivo as may be evidenced by, for instance, the antagonism of substance P-induced plasma extravasation in guinea-pigs, or the antagonism of drug-induced emesis in ferrets (Watson et al., Br. J. Pharmacol. 115, 84-94, 1995).
Antagonism of substance P induced plasma extravasation in guinea-pigs
Plasma extravasation was induced by injection of substance P (2 mg/kg) in the femoral artery of female guinea-pigs. Evans Blue dye (30 mg/kg) was injected simultaneously. The test compound or solvent was administered 1 hour prior to substance P injection. 10 minutes after challenge, the aminals were checked for blue colouring (a direct measure for plasma extravasation) of the nose, the forepaws, and the conjectiva. 30 minutes after challenge, the animals were sacrificed by CO2 gas inhalation and checked for blue colouring of the trachea and the urinary bladder. […]

[2] = tested on: substance-P induced relaxation of the pig coronary arteries; assay: Antagonism of substance-P induced relaxation of the pig coronary arteries; type: cell-based; settings: concentration at which 50% of the response to 10^−9 M substance P was inhibited, 30 minutes incubation, prostaglandin F2a precontracted segments
Excerpt: as §1
Antagonism of substance-P induced relaxation of the pig coronary arteries
Segments of coronary artieries taken from pigs (killed by injection of an overdose of sodium pentobarbital) were inverted and mounted for recordign of isometric tension in organ baths (volume 20 ml) with the endothelium at the outside. The preparations were bathed in Krebs-Henseleit solution. The solution was kept at 37° C. and gassed with a mixture of O2/CO2 (95/5). After stabilisation of the preparations, prostaglandin F2a (10^−5 M) was administered to induce a contraction. This was repeated until contractivle responses became stable. Then prostaglandin F2a was again administered and substance P(3×10^−10 M and 10^−9 M cumulatively) was added. Substance P induced endothelium dependent relaxations. After washing away the agonists, a known concentratin of a compound of formula (I) was added. After an incubation period of 30 minutes, prostaglandin F2a ([…]) and the same concentrations of sbustance P as described above were again administered in the presence of the compound to be tested. Relaxations caused by substance P were expressed as relaxations under control conditions, and percent inhibition of the response to […] substance P was taken as a measure of the antagonistic activity of the compound to be tested. Table 6 lists the IC50 values (concentration at which 50% of the response to […] substance P was inhibited by the test compound) for the tested compounds.

SMILES: Cc1cc(C)cc(C(=O)N2CCC(N3CCN(C(c4ccccc4)c4ccccc4)CC3)CC2Cc2ccccc2)c1 (racemic) [Compound 12]
LAD nose [1]: >40.0 mg/kg
LAD conjunctiva [1]: >40.0 mg/kg
LAD forepaws [1]: >40.0 mg/kg
LAD trachea [1]: >40 mg/kg
LAD urinary bladder [1]: 40.0 mg/kg

SMILES: O=C(c1cc(C(F)(F)F)cc(C(F)(F)F)c1)N1CCC(N2CCN(c3nc4ccccc4[nH]3)CC2)CC1Cc1ccccc1 (racemic) [Compound 40]
LAD nose [1]: 10.0 mg/kg
LAD conjunctiva [1]: 10.0 mg/kg
LAD forepaws [1]: 10.0 mg/kg
LAD trachea [1]: >40 mg/kg
LAD urinary bladder [1]: >40 mg/kg

SMILES: Cc1cc(C)cc(NC(=O)CN2CCN(C3CCN(C(=O)c4cc(C(F)(F)F)cc(C(F)(F)F)c4)C(Cc4ccccc4)C3)CC2)c1 (racemic) [Compound 47]
LAD nose [1]: 40.0 mg/kg
LAD conjunctiva [1]: 40.0 mg/kg
LAD forepaws [1]: 40.0 mg/kg
LAD trachea [1]: >40 mg/kg
LAD urinary bladder [1]: >40 mg/kg

SMILES: Cc1cccc(C)c1NC(=O)CN1CCN(C2CCN(C(=O)c3cc(C(F)(F)F)cc(C(F)(F)F)c3)C(Cc3ccccc3)C2)CC1 (racemic) [Compound 58]
pIC50 [2]: 9.62

SMILES: O=C(c1cc(C(F)(F)F)cc(C(F)(F)F)c1)N1CCC(N2CCCN(Cc3ccccc3)CC2)CC1Cc1ccccc1 (racemic) [Compound 63]
pIC50 [2]: 8.08

SMILES: Cc1cccc(C)c1NC(=O)CN1CCCN(C2CCN(C(=O)c3cc(C(F)(F)F)cc(C(F)(F)F)c3)C(Cc3ccccc3)C2)CC1 (racemic) [Compound 65]
pIC50 [2]: 8.19

SMILES: CCOCCn1c(NC(=O)CN2CCN(C3CCN(C(=O)c4cc(C(F)(F)F)cc(C(F)(F)F)c4)C(Cc4ccccc4)C3)CC2)nc2ccccc21 (racemic) [Compound 69]
pIC50 [2]: 8.80

SMILES: NC(=O)c1cc(Cl)c(NC(=O)CN2CCN([C@@H]3CCN(C(=O)c4cc(C(F)(F)F)cc(C(F)(F)F)c4)[C@@H](Cc4ccccc4)C3)CC2)c(Cl)c1 (racemic) [Compound 74]
LAD nose [1]: 10.0 mg/kg
LAD conjunctiva [1]: 10.0 mg/kg
LAD forepaws [1]: 10.0 mg/kg
LAD trachea [1]: >40 mg/kg
LAD urinary bladder [1]: >40 mg/kg

SMILES: CC(C)NC(=O)CN1CCN(C2CCN(C(=O)c3cc(C(F)(F)F)cc(C(F)(F)F)c3)C(Cc3ccccc3)C2)CC1 (racemic) [Compound 76]
pIC50 [2]: 7.85

SMILES: CC(=O)NCC(c1ccccc1)N1CCN(C2CCN(C(=O)c3cc(C(F)(F)F)cc(C(F)(F)F)c3)C(Cc3ccccc3)C2)CC1 (racemic) [Compound 82]
LAD nose [1]: 2.50 mg/kg
LAD conjunctiva [1]: 2.50 mg/kg
LAD forepaws [1]: 2.50 mg/kg
LAD trachea [1]: 10.0 mg/kg
LAD urinary bladder [1]: >40 mg/kg

SMILES: CC(=O)NCC(c1ccccc1)N1CCN(C2CCN(C(=O)c3cc(C(F)(F)F)cc(C(F)(F)F)c3)C(Cc3ccccc3)C2)CC1 (racemic) [Compound 83]
LAD nose [1]: 0.63 mg/kg
LAD conjunctiva [1]: 2.50 mg/kg
LAD forepaws [1]: 0.63 mg/kg
LAD trachea [1]: >40 mg/kg
LAD urinary bladder [1]: 0.63 mg/kg

SMILES: O=C(c1cc(C(F)(F)F)cc(C(F)(F)F)c1)N1CCC(N2CCN(CC(O)c3ccccc3)CC2)CC1Cc1ccccc1 (racemic) [Compound 86]
pIC50 [2]: 8.67

SMILES: O=C(O)C=CC(=O)O.O=C(O)C=CC(=O)O.O=C(c1cc(C(F)(F)F)cc(C(F)(F)F)c1)N1CCC(N2CCN(CCc3ccccc3)CC2)CC1Cc1ccccc1 (racemic) [Compound 90]
LAD nose [1]: 10.0 mg/kg
LAD conjunctiva [1]: 10.0 mg/kg
LAD forepaws [1]: 10.0 mg/kg
LAD trachea [1]: 10.0 mg/kg
LAD urinary bladder [1]: >40 mg/kg

SMILES: CN(CC(CCN1CCN(C2CCN(C(=O)c3cc(C(F)(F)F)cc(C(F)(F)F)c3)C(Cc3ccccc3)C2)CC1)c1ccc(Cl)c(Cl)c1)C(=O)c1ccccc1 (racemic) [Compound 92]
pIC50 [2]: 9.11

pIC50 ([2]; Sus scrofa, 0.5 h): 8.30
SMILES: CN(CC(CCN1CCN([C@H]2CCN(C(=O)c3cc(C(F)(F)F)cc(C(F)(F)F)c3)[C@@H](Cc3ccccc3)C2)CC1)c1ccc(Cl)c(Cl)c1)C(=O)c1ccccc1 (mixture of isomers) [Compound 93, (±)-cis-N-[4-[4-[1-[3,5-bis(trifluoromethyl)benzoyl]-2-(phenylmethyl)-4-piperidinyl]-1-piperazinyl]-2-(3,4-dichlorophenyl)butyl]-N-Methylbenzamide (E)-2-butenedioate (1:2)]

SMILES: CCn1nnn(CCN2CCN(C3CCN(C(=O)c4cc(C(F)(F)F)cc(C(F)(F)F)c4)C(Cc4ccccc4)C3)CC2)c1=O.O=C(O)C=CC(=O)O.O=C(O)C=CC(=O)O (racemic) [Compound 96]
LAD nose [1]: 10.0 mg/kg
LAD conjunctiva [1]: 10.0 mg/kg
LAD forepaws [1]: 10.0 mg/kg
LAD trachea [1]: >40 mg/kg
LAD urinary bladder [1]: >40 mg/kg

SMILES: O=C(CN1CCN(C2CCN(C(=O)c3cc(C(F)(F)F)cc(C(F)(F)F)c3)C(Cc3ccccc3)C2)CC1)Nc1nccn1Cc1ccccc1 (racemic) [Compound 97]
pIC50 [2]: 8.80

SMILES: O=C(CN1CCN(C2CCN(C(=O)c3cc(C(F)(F)F)cc(C(F)(F)F)c3)C(Cc3ccccc3)C2)CC1)C1CCc2ccccc21 (racemic) [Compound 99]
pIC50 [2]: 8.84

SMILES: Cc1cccc(C)c1NC(=O)C(c1ccccc1)N1CCN(C2CCN(C(=O)c3cc(C(F)(F)F)cc(C(F)(F)F)c3)C(Cc3ccccc3)C2)CC1 (racemic) [Compound 102]
pIC50 [2]: 8.73

SMILES: Cc1cccc(C)c1NC(=O)CCN1CCN(C2CCN(C(=O)c3cc(C(F)(F)F)cc(C(F)(F)F)c3)C(Cc3ccccc3)C2)CC1.O=C(O)C=CC(=O)O.O=C(O)C=CC(=O)O (racemic) [Compound 103]
LAD nose [1]: 2.50 mg/kg
LAD conjunctiva [1]: 2.50 mg/kg
LAD forepaws [1]: 2.50 mg/kg
LAD trachea [1]: 10.0 mg/kg
LAD urinary bladder [1]: 2.50 mg/kg

SMILES: Cc1cccc2c1N(C(=O)CN1CCN(C3CCN(C(=O)c4cc(C(F)(F)F)cc(C(F)(F)F)c4)C(Cc4ccccc4)C3)CC1)CC2 (racemic) [Compound 104]
pIC50 [2]: 9.52

SMILES: Cc1cc(C)cc(C(=O)NCCN2CCN(C3CCN(C(=O)c4cc(C(F)(F)F)cc(C(F)(F)F)c4)C(Cc4ccccc4)C3)CC2)c1 (racemic) [Compound 115]
pIC50 [2]: 8.65

SMILES: O=C(c1cc(C(F)(F)F)cc(C(F)(F)F)c1)N1CCC(N2CCN(c3cccc(C(F)(F)F)c3)CC2)CC1Cc1ccccc1 (racemic) [Compound 120]
pIC50 [2]: 9.09

SMILES: O=C(CN1CCN(C2CCN(C(=O)c3cc(C(F)(F)F)cc(C(F)(F)F)c3)C(Cc3ccccc3)C2)CC1)N1Cc2ccccc2C1 (racemic) [Compound 121]
pIC50 [2]: 8.56

SMILES: O=C(CN1CCN(C2CCN(C(=O)c3cc(C(F)(F)F)cc(C(F)(F)F)c3)C(Cc3ccccc3)C2)CC1)N1Cc2ccccc2C1 (racemic) [Compound 122]
pIC50 [2]: 8.77

SMILES: Cc1cccc(C)c1NC(=O)CN1CCN(C2CCN(C(=O)c3cc(C(F)(F)F)cc(C(F)(F)F)c3)C(Cc3ccccc3)C2)CC1 (single isomer, unassigned) [Compound 124]
pIC50 [2]: 10.22

SMILES: Cc1cc(C)cc(C(=O)N2CCC(N3CCN(CC(=O)Nc4c(C)cccc4C)CC3)CC2Cc2ccccc2)c1 (stereo not drawn) [Compound 5]
pIC50 [2]: 8.34

SMILES: Cc1cc(C)cc(C(=O)N2CCC(N3CCN(CC=Cc4ccccc4)CC3)CC2Cc2ccccc2)c1 (stereo not drawn) [Compound 8]
LAD nose [1]: 10.0 mg/kg
LAD conjunctiva [1]: 10.0 mg/kg
LAD forepaws [1]: 10.0 mg/kg
LAD trachea [1]: >40 mg/kg
LAD urinary bladder [1]: >40 mg/kg

SMILES: O=C(c1ccco1)N1CCN(C2CCN(C(=O)c3cc(C(F)(F)F)cc(C(F)(F)F)c3)C(Cc3ccccc3)C2)CC1 (stereo not drawn) [Compound 21]
LAD nose [1]: 10.0 mg/kg
LAD conjunctiva [1]: 10.0 mg/kg
LAD forepaws [1]: 10.0 mg/kg
LAD trachea [1]: >40 mg/kg
LAD urinary bladder [1]: 10.0 mg/kg

SMILES: Cc1ncc(Cn2c(N3CCN(C4CCN(C(=O)c5cc(C(F)(F)F)cc(C(F)(F)F)c5)C(Cc5ccccc5)C4)CC3)nc3ccccc32)o1 (stereo not drawn) [Compound 23]
LAD nose [1]: 10.0 mg/kg
LAD conjunctiva [1]: 40.0 mg/kg
LAD forepaws [1]: 10.0 mg/kg
LAD trachea [1]: >40 mg/kg
LAD urinary bladder [1]: >40 mg/kg
